Reference: ChEMBL document CHEMBL1201862, “PubChem BioAssay data set” (2004)
Calls of active or inactive are those of the source.

Tests used:
[1] = reduction of Shn3 3'UTR-driven luciferase in osteoblasts – cell-based, Clone20 osteoblasts, firefly luciferase, cherry-picked, dose response (AID 624132); assay type: functional;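 also: firefly luciferase luminescence from reporter carrying the Shn3 3'UTR in osteoblasts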
[2] = target: Beta-galactosidase (Escherichia coli, UniProt Q8VNN2); assay type: functional
[3] = decrease of insulin promoter-GFP reporter – imaging, high-content screening, mouse beta cells (AID 1628); assay type: functional; conditions: MIN6
[4] = target: T1, Kappa-type opioid receptor (Homo sapiens, UniProt P41145); assay type: functional
[5] = tested on: Streptococcus sp. 'group A'; assay: Streptococcus pyogenes SK(-)GAS viability under kanamycin – luminescence, BacTiterGlo, confirmation, counter-screen for streptokinase expression inhibitor project, dose response (AID 1900); assay type: functional, organism-based
[6] = target: T2, Delta-type opioid receptor (Homo sapiens, UniProt P41143); assay: HTS Image-Based Screen for Antagonists of the DOR Receptor. [Related pubchem assays (depositor defined):AID1777, AID1785, AID1786, AID2133]; assay type: functional
[7] = target: T1, Kappa-type opioid receptor; assay type: functional; remark: listed apart in the source
[8] = tested on: INS1; assay: INS-1E survival protection against cytokine death – cell-based, luminescence, retest, dose response (AID 449756); assay type: functional; conditions: Rattus norvegicus;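 also: cell death triggered by IL-1 beta plus TNF-alpha plus IFN-gamma mixture; protective hits raise ATP signal compared with cytokine alone wells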
[9] = target: T2, Delta-type opioid receptor; assay: HTS Image-Based Screen for Agonists of the DOR Receptor. [Related pubchem assays (depositor defined):AID1777, AID1786, AID2133]; assay type: functional
[10] = non-specific 3'UTR reporter inhibition in Clone20-Shn3RL – cell-based, Renilla luciferase, cherry-picked, counter-screen for Shn3 inhibitor project, dose response (AID 624133); assay type: functional
[11] = MIN6 cell viability loss – mouse insulinoma, cytotoxicity control, dose response (AID 2122); assay type: functional;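 also: confirmatory high-throughput counterscreen run to flag cytotoxic compounds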
[12] = M. tuberculosis H37Rv growth inhibitors, H37Rv strain (AID 1626); assay type: functional
[13] = target: Mu-type opioid receptor (Homo sapiens, UniProt P35372); assay: HTS Image-Based Screen for Agonists of the MOR Receptor. [Related pubchem assays (depositor defined):AID1777, AID1785, AID1786, AID2133]; assay type: functional;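 also: imaging of beta-arrestin GFP recruitment into spots after receptor activation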
[14] = tested on: Streptococcus; assay: GAS UMAA2166 growth inhibition – luminescence, BacTiterGlo, counter-screen for streptokinase expression inhibitor project, dose response (AID 1915); assay type: functional, organism-based;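 also: potency for reduction of bacterial viability or growth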
[15] = loss of viability in HepG2 cells – cell-based, CellTiter-Glo, cherry-picked, cytotoxicity control for Shn3 inhibitor project, dose response (AID 624134); assay type: functional
[16] = target: T3, Tyrosine-protein phosphatase non-receptor type 22 (Homo sapiens, UniProt Q9Y2R2); assay type: functional
T3 sequence (Q9Y2R2 whole entry): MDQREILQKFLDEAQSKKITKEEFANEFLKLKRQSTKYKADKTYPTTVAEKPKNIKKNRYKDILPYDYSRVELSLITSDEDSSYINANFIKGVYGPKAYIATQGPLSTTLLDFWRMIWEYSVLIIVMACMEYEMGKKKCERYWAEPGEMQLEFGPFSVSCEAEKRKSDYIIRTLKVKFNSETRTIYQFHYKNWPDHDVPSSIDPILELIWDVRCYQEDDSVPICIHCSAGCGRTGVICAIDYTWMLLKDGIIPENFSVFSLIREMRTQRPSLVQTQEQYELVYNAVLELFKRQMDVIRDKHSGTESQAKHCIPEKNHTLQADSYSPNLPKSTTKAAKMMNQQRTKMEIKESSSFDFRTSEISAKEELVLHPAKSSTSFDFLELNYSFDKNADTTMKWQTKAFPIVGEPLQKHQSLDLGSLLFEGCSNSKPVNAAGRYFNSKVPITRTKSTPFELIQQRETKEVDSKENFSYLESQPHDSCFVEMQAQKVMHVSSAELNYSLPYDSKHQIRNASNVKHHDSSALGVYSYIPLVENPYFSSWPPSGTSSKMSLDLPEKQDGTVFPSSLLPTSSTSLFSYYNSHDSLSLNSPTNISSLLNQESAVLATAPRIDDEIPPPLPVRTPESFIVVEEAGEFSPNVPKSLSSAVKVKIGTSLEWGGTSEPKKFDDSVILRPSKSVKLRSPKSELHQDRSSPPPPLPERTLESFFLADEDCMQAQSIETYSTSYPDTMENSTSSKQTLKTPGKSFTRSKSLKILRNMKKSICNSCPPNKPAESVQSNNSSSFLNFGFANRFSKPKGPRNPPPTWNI

[17] = target: T3, Tyrosine-protein phosphatase non-receptor type 22; assay type: functional; remark: listed apart in the source
[18] = target: T4, Small ubiquitin-related modifier 1 (Homo sapiens, UniProt P63165); assay: SUMO1 protein-protein binding blockers, potency – biochemical, FRET, dose response (AID 624383); assay type: functional; conditions: read-out: IC50_Mean
[19] = target: T4, Small ubiquitin-related modifier 1; assay: SUMO1 protein interaction blockers, potency – biochemical, fluorescence polarization, uHTS hits, dose response (AID 624382); assay type: functional; conditions: read-out: IC50_Mean
[20] = target: T5, Tyrosine-protein phosphatase non-receptor type 7 (Homo sapiens, UniProt P35236); assay type: functional
T5 sequence (P35236 whole entry): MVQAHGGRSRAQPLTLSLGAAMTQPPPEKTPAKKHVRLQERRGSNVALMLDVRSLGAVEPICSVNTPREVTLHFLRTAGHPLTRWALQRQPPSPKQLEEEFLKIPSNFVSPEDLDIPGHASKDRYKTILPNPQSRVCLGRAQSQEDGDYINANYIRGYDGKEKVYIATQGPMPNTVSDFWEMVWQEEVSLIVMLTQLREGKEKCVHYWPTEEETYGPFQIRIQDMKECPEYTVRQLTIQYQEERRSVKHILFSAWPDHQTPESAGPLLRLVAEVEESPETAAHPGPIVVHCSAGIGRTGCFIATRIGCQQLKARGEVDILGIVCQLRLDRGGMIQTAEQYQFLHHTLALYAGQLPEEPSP

[21] = target: Eukaryotic translation initiation factor 4H (Homo sapiens, UniProt Q15056); assay: inhibitors of translation initiation factor eIF4H – SAR follow-up (AID 435011); assay type: functional
[22] = target: Polyadenylate-binding protein 1 (Homo sapiens, UniProt P11940); assay: PABP inhibition in translation initiation, SAR follow-up (AID 435018); assay type: functional
[23] = tested on: BJ; assay: cells; assay type: functional, cell-based; conditions: Homo sapiens
[24] = target: Neurotensin receptor type 1 (Homo sapiens, UniProt P30989); assay type: functional;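 also: Image-based confirmatory dose-response assay measuring agonist activity at NTR1; NTR1-expressing U2OS osteosarcoma cells imaged for beta-arrestin GFP spot formation; agonist potency where compounds increase beta-arrestin recruitment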
[25] = DRD fibroblast viability loss – cell-based, non-viral oncogenic, luminescence, dose response (AID 1934); assay type: functional; conditions: Homo sapiens
[26] = tested on: BJ; assay: BJ-TERT-LT-ST fibroblast viability loss – cell-based, RAS-independent, luminescence, dose response (AID 1935); assay type: functional; conditions: Homo sapiens;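 also: BJ fibroblasts immortalized with TERT plus LT and ST oncogenes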
[27] = tested on: Vero; assay: cells; assay type: functional; conditions: Chlorocebus sabaeus
[28] = tested on: BJ; assay: BJ-TERT fibroblast viability loss – cell-based, RAS-independent, luminescence, dose response (AID 1933); assay type: functional; conditions: Homo sapiens
[29] = tested on: Vero; assay: cells; assay type: functional, cell-based; conditions: Chlorocebus sabaeus
[30] = target: T6, Hexokinase HKDC1 (Homo sapiens, UniProt Q2TB90); assay: inhibition of HKDC1 glucose phosphorylation – biochemical, W721R variant, dose response (AID 504729); assay type: functional
T6 sequence (Q2TB90 whole entry): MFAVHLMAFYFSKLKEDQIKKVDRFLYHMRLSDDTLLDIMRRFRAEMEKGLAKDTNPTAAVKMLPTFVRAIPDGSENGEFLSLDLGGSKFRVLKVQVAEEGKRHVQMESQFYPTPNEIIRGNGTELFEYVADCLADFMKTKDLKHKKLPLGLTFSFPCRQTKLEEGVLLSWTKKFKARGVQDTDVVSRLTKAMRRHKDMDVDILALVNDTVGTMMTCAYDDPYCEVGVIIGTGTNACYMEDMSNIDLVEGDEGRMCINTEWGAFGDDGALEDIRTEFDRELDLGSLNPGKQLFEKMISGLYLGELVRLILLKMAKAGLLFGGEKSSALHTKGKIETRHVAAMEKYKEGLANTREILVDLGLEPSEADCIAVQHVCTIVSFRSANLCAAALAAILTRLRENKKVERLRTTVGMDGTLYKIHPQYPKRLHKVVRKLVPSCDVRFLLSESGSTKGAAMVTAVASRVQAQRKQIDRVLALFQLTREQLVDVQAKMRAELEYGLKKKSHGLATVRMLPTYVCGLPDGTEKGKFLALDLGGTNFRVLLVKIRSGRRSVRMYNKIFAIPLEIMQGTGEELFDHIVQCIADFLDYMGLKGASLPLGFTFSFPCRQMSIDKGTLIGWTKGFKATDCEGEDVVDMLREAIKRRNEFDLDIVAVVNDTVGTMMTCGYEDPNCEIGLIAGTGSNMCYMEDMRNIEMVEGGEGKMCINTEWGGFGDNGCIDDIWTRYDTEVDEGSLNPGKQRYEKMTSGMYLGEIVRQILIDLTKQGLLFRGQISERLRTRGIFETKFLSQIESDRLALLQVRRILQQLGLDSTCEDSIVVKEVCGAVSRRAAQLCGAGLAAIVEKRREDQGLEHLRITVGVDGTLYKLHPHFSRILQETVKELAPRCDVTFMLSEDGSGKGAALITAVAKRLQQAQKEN

[31] = target: SUMO E1/E2 (Homo sapiens, UniProt P63279+Q9UBE0+Q9UBT2); assay: SAR analysis of SUMOylation using HTRF in an in-Vitro dose response assay. [Related pubchem assays (depositor defined):AID2006, AID2011, AID2018, AID2069, AID2658]; assay type: functional
[32] = target: G-protein coupled receptor 55 (Homo sapiens, UniProt Q9Y2T6); assay: selective activators of receptor GPR55 – imaging, U2OS cells, beta-arrestin-GFP redistribution, primary screen (AID 1961); assay type: functional

T4 sequence (P63165 whole entry): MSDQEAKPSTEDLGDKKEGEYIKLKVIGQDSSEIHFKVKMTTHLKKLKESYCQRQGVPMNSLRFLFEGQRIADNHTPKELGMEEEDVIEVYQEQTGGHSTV
T2 sequence (P41143 whole entry): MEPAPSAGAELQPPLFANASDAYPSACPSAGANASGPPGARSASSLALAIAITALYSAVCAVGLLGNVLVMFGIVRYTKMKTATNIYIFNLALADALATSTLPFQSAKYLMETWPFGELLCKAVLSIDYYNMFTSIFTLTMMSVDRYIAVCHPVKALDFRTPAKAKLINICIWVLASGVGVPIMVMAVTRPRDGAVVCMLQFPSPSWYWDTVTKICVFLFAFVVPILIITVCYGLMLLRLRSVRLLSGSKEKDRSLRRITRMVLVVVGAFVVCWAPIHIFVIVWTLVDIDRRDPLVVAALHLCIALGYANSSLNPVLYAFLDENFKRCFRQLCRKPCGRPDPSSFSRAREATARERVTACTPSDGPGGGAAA
T1 sequence (P41145 whole entry): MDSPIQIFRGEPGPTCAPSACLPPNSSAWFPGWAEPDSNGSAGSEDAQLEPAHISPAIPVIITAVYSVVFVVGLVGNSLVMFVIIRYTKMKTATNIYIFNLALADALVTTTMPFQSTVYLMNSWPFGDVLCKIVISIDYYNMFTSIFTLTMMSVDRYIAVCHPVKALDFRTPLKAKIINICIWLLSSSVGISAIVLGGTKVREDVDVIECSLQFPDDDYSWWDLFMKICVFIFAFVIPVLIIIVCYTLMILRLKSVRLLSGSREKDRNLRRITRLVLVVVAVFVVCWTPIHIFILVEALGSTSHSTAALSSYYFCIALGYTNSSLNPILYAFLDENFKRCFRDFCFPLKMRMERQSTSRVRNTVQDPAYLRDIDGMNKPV
Polyadenylate-binding protein 1, sequence (P11940 whole entry): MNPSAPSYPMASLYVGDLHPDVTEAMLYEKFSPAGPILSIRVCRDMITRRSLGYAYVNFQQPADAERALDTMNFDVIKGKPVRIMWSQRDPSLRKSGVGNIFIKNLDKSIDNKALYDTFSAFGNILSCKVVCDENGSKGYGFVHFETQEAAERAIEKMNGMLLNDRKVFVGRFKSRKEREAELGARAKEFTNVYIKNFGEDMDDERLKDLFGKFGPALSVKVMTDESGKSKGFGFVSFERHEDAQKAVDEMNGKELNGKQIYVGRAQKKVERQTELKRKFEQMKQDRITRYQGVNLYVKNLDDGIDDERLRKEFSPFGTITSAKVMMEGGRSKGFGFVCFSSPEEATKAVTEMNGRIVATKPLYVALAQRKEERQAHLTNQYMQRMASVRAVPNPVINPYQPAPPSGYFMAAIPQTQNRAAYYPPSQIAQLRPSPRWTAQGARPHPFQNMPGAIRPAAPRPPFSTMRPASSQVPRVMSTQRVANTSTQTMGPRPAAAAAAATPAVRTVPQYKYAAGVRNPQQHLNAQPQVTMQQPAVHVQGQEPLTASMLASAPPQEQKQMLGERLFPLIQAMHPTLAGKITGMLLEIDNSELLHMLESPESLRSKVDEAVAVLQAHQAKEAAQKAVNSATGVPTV
SUMO E1/E2, sequence (Q9UBE0 whole entry): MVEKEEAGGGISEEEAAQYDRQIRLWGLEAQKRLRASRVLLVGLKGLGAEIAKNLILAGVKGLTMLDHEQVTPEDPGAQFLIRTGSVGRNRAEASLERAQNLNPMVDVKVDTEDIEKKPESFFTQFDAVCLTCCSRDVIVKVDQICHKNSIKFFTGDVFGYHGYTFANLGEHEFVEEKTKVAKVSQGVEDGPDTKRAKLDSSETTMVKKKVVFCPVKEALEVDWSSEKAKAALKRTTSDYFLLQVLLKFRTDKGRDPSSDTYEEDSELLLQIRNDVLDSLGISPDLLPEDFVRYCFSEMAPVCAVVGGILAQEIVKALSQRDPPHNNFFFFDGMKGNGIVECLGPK
SUMO E1/E2, sequence (Q9UBT2 whole entry): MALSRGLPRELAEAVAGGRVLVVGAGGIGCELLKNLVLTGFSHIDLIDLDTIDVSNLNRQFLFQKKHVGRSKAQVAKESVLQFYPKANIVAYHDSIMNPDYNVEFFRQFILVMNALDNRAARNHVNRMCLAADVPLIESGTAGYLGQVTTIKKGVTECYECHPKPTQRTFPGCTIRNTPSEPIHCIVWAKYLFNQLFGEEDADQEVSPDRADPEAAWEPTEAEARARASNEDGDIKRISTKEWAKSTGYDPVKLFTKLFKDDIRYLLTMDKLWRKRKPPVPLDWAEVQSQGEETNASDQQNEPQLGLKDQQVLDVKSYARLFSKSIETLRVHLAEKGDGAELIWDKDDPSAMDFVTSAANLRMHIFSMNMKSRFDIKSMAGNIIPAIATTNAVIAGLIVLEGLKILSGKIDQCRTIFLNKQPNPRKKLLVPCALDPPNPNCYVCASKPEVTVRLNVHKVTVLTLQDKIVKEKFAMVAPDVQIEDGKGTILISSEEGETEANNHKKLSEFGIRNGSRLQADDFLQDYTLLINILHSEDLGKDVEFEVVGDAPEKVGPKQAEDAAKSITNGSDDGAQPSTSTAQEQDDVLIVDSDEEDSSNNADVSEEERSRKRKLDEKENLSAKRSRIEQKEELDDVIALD
SUMO E1/E2, sequence (P63279 whole entry): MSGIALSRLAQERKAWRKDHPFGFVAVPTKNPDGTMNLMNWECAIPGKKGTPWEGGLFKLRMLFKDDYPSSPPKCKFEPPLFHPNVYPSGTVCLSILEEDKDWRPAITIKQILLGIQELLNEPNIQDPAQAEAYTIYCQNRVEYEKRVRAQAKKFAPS
Beta-galactosidase, sequence (Q8VNN2 whole entry): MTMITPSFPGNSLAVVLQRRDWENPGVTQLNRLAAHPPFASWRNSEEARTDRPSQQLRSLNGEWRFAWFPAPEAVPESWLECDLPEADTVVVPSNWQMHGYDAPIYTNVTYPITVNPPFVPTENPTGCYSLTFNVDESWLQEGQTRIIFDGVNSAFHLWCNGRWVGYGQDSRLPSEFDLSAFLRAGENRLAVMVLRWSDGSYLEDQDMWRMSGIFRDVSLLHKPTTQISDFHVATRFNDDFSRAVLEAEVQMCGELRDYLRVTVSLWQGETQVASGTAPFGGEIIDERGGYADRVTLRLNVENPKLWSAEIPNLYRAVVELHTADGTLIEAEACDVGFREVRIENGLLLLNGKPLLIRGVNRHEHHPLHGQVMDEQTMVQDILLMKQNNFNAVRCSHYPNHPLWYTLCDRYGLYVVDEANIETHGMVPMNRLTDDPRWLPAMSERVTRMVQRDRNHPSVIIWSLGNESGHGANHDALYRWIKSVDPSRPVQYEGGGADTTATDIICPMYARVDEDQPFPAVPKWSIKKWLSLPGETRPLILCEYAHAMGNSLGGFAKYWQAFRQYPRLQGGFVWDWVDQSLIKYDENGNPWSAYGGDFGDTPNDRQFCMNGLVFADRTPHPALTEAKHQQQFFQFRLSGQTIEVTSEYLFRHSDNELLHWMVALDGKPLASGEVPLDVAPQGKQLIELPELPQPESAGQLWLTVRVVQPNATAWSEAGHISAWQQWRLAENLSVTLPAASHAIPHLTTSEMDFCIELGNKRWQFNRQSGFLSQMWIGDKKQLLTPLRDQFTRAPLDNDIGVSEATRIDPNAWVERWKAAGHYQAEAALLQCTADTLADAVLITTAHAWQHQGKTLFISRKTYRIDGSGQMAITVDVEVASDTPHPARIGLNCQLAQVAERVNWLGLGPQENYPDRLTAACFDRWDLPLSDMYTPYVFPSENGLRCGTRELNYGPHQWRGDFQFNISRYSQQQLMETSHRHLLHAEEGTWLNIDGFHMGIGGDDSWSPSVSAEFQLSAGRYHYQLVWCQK
Mu-type opioid receptor, sequence (P35372 whole entry): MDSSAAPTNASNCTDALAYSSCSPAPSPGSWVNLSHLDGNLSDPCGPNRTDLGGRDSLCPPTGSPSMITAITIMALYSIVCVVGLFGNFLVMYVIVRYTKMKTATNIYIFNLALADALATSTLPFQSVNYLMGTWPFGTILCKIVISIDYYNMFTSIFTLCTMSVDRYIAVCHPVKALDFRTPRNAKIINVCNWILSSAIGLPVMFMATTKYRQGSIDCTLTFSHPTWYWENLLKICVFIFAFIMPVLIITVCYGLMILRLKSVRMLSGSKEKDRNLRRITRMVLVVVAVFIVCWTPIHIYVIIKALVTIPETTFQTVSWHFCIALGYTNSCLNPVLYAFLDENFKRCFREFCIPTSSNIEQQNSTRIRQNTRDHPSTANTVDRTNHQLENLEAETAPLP
Neurotensin receptor type 1, sequence (P30989 whole entry): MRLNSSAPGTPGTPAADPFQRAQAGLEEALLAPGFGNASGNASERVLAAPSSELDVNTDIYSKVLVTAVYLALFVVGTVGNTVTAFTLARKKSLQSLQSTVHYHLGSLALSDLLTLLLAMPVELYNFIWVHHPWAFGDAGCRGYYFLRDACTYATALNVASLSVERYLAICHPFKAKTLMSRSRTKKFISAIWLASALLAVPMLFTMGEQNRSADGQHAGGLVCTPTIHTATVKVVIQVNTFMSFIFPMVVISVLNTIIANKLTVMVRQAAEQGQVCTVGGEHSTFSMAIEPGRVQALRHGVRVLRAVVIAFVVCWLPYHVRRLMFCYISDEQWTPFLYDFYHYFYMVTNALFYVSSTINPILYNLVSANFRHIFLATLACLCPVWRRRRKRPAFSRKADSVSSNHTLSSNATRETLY

Structure (SMILES): CCc1nnc(NC(=O)c2cccc(C(=O)Nc3nnc(CC)s3)n2)s1
- AC50 [1]: 1.45 µM (active)
- EC50 [2]: > 31.5 µM (inactive)
- IC50 [3]: 0.666 µM (active)
- IC50 [4]: 5 µM (inactive)
- EC50 [5]: 0.829 µM (active)
- IC50 [6]: > 32 µM (inactive)
- IC50 [7]: > 32 µM
- AC50 [8]: 0.678 µM (active)
- EC50 [9]: > 32 µM (inactive)
- AC50 [10]: 0.573 µM (active)
- IC50 [11]: 0.568 µM (active)
- IC50 [12]: 100 µM (active)
- EC50 [13]: > 32 µM (inactive)
- EC50 [14]: 3.5 µM (active)
- AC50 [15]: 5.56 µM (active)

Structure (SMILES): CC(=O)c1ccc2c(c1)C1C(Cl)C(Sc3ccccc3[N+](=O)[O-])CC1C(C(=O)O)N2 (centres undefined)
- IC50 [16]: 57.9 µM (active)
- IC50 [17]: 32 µM (active)
- IC50 [18]: 13.2 µM (active)
- IC50 [19]: > 66.6 µM (inactive)
- IC50 [20]: 58.2 µM (active)

Structure (SMILES): O=C(CSc1ccc(-c2ccco2)nn1)N1CCCCCC1
- IC50 [21]: 69.4 µM (active)
- IC50 [22]: > 100 µM (inactive)

Structure (SMILES): CCN(CC)c1ccc(C=C2C(=O)NC(=S)NC2=O)cc1
- EC50 [23]: 15.9 µM (active)
- EC50 [24]: 3.91 µM (active)
- EC50 [25]: 10.8 µM (active)
- EC50 [26]: > 75 µM (inconclusive)
- CC50 [27]: 13.9 µM (active)
- EC50 [28]: 13.5 µM (active)
- IC50 [29]: > 25 µM (active)

Structure (SMILES): Nc1c(Br)cc2c3c(cccc13)-c1ccccc1-2
- IC50 [30]: 4.58 µM (active)

Structure (SMILES): Clc1ccc2c(c1)C1C=CCC1C(c1ccccc1)N2 (centres undefined)
- IC50 [31]: > 100 µM (inactive)

Structure (SMILES): COc1ccc([N+](=O)[O-])cc1NC(=O)COC(=O)c1ccc(NC(N)=O)cc1
- IC50 [21]: > 100 µM (inactive)
- IC50 [22]: > 100 µM (inactive)

Structure (SMILES): COc1ccc(-c2n(CC(=O)OC3CC(C)CCC3C(C)C)c3ccccc3[n+]2C)cc1 (centres undefined)
- EC50 [32]: > 32 µM (inactive)
